The target of assay [1] is T1, U87-MG cell line of overexpressed mutant IDH2 (R140Q) (Homo sapiens, UniProt P48735, R140Q).
T1 construct: expressed in transfected cells
T1 sequence (P48735 40-452 R140Q): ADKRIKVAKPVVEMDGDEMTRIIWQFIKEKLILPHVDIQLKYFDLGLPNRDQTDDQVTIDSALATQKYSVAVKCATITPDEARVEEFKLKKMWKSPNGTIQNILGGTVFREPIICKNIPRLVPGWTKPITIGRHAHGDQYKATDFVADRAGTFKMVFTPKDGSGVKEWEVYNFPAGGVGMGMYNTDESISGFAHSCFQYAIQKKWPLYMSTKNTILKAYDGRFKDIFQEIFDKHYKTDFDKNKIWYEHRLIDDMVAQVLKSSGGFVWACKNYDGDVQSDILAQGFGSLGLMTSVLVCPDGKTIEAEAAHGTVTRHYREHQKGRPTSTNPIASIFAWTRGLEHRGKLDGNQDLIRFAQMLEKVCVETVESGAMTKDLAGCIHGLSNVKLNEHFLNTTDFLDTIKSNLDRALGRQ
Kind of assay: Cell activity in vitro: 2-HG in culture supernatant of U87-MG (IDH2-R140Q) cells by LC-MS/MS. The class given is cell-based. The protocol:
1.2 Cells: human glioblastoma cell line U87-MG, purchased from the American Type Culture Collection (ATCC);
Cell recovery: U87-MG (IDH2-R140Q) cells and U87-MG cells were put into a 37° C. water bath, then transferred to 15 mL of pre-warmed medium, centrifuged at 1000 rpm for 5 minutes, and the medium was discarded. The cells were resuspended in 15 mL of fresh medium, transferred to a T75 flask and cultured in a 37° C. incubator with 5% CO2. After 24 hours, the medium was changed to fresh medium.
Cell passage: The above-mentioned recovered cells were transferred to a 50 mL sterile centrifuge tube, centrifuged at 1000 rpm for 5 minutes, and the medium was discarded. The cells were resuspended evenly and counted. The cell density was adjusted appropriately in a 15 mL fresh medium, and then added to T75 culture flask. The culture flask was incubated in an incubator with 5% CO2 at 37° C.
After cells grown to a relatively high density in the culture dish, the cells were trypsinized, resuspended in medium (MEM+10% FBS), and counted. After adjusting the cell concentration, the resuspended cells were seeded in a 96-well plate at 5×10^3 cells per well. After inoculation, the cells were cultured for 24 hours until the cells adhered. The medium were sucked out, and the medium containing gradient concentration of compound was added, 100 μL per well. The cells were further cultured for 72 hours. The s 20 μL of upernatant was taken and put into a 2 mL 96-well sample-processing plate. 480 μL of dilution solution was added and shaken for mixing, and then centrifuged at 4500 rpm for 5 minutes. 200 μL of supernatant was transferred for LC-MS/MS injection analysis.
Column: Shim-pack XR-ODS 30L*2.0; mobile phase: acetonitrile-0.2% ammonia, 5 mM ammonium acetate aqueous solution; column temperature: 30° C.; flow rate: 0.4 mL/min; gradient elution conditions are as follows: […]
Atmospheric […] chemical ionization (APCI) was used. Source parameters was set as follows: IonSpray Voltage/IS-4500V; auxiliary gas 1 (Ion Source Gas 1/GS 1, N2), 55Arb; auxiliary gas 2 (Ion Source Gas 2, N2), 55Arb; auxiliary gas heating temperature (Temperature/TEM), 500° C.; curtain gas/CUR, 25Arb; collision gas/CAD, N2, 8 Pa.
Multi-ion reaction monitoring (MRM) in negative ion mode (Negative) was used. […] The internal standard (IS) MRM parameters: parent ion (Q 1 Mass), 178.0 Da; daughter ion (Q3 Mass), 149.0 Da; Decluster Potential (DP), −51V; collision voltage (Collision Energy/CE), −17 eV
By determining the 2-HG content in the cell culture supernatant of each well using LC-MS/MS, the mutant enzyme activity (2-HG remaining compared to untreated %) was calculated. The calculation formula: 2-HG remaining compared to untreated %=(Measured 2-HG level—U87-MG control 2-HG level)/(Untreated 2-HG level—U87-MG control 2-HG level)×100. […] Data were processed by GraphPad Prism v5.0 software and fitted to obtain IC50.

A further assay addresses T2, IDH2-R140Q mutant enzyme (Homo sapiens, UniProt P48735, R140Q).
T2 construct: purchased BPS 71100-1
T2 sequence (P48735 40-452 R140Q): T1 sequence (P48735 40-452 R140Q)
Briefly: Inhibitory activity of compounds on IDH2-R140Q enzyme in vitro (diaphorase/resazurin fluorescence). The class given is biochemical. Conditions: R140Q IC50, IDH2-R140Q, pre-incubated 16 h with enzyme and NADPH, reaction 1 h with α-ketoglutarate. (Resazurin is reduced to fluorescent resorufin, in cell work by metabolically active cells.)

In general, IC50 refers to the concentration that inhibits the measured activity by half. A higher IC50 goes with a need for much substance.

On to `CC(C)(O)CNc1nc(Nc2ccnc(C(F)(F)F)c2)nc(-c2cccc(C(F)(F)F)n2)n1` [AG-221, 2-methyl-1-(4-(6-(trifluoromethyl)pyridin-2-yl)-6-(2-(trifluoromethyl)pyridin-4-ylamino)-1,3,5-triazin-2ylamino)propan-2-ol, reference compound], for which the IC50 in assay [1] worked out at 30.2 nM; against IDH2-R140Q mutant enzyme it was 21 nM.

Source of the values: US10961222B2, “Chemical compound of isocitrate dehydrogenase inhibitor, and application thereof” (NANJING SANHOME PHARMACEUTICAL CO., LTD., priority 2016, dated 2021).
